Experimental data taken from patent US4035566A, “N-trifluoroacetyladriamycin-14-alkanoates and therapeutic compositions containing same” (Sidney Farber Cancer Institute, Inc., priority 1975, dated 1977).
Read-outs that look alike come from different tables or passages of the source.

What was measured:
CCRF-CEM cell line = assay: in vitro growth inhibition of CCRF-CEM cell line in culture (Foley and Lazarus procedure); type: cell-based, child; conditions: Homo sapiens, read-out: ID50 (dose required to inhibit growth of the cultures by 50% relative to control cultures)
Experimental: (§1) The toxicity and therapeutic effectiveness of the new compounds and active agents of the present invention are shown by in vitro assays and by in vivo evaluations in mice. The in vitro assays measure the growth inhibiting activity of the materials against the CCRF-CEM cell line in culture. The cell line was derived from the peripheral blood and a child with lymphoblastic leukemia as described by Foley et al., Cancer, Volume 18, page 522 et seq. (1965), and the assays were carried out by the procedure of Foley and Lazarus, Biochem. Pharmacol., Volume 16, pages 659 et seq. (1967), the results being reported in terms of the dose in micromoles per liter required to inhibit growth of the cultures by 50% relative to control cultures to which no drug had been added (ID50). The in vivo evaluations were made by preparing a 0.2 to 0.7% by weight solution of the active agent in a 10% by volume aqueous solution of polyoxyethylene sorbitan monooleate (polysorbate 80) as a carrier and injecting the dosage intraperitoneally. The evaluations were made of the antitumor activity against the murine P 388 and murine L 1210 leukemias in BDF1 male mice according to standard National Cancer Institute protocols as set forth by Geran et al., Cancer Chemotherap. Rep., Part 3, Volume 3, pages 1 et seq. (1972), except that a qd 1-4 schedule was used in place of qd 1-9 in order to conserve materials. Evaluations were also made of the antitumor activity against the Ridgway osteogenic sarcoma, a solid tumor, in AKD2 /F1 mice, according to the procedures described in the report by G. J. D'Angio, C. L. Maddock, S. Farber, and B. L. Brown, Cancer Research, 25, 1002-1007 (1965).
The following table summarizes the inhibitory activity of various N-trifluoroacetyladriamycin-14-alkanoates as well as other materials when tested in vitro as described in the paragraphs preceding Example 1 above.

murine P 388 leukemia = assay: in vivo antitumor activity against murine P 388 leukemia (Geran et al. procedure); set-up: species or system BDF1 male mice; conditions: Table II, i.p., qd 1-4; for Survivors 60da: optimal dose mg/kg: acetate 40, isobutyrate 40, valerate 40, caproate 60, caprylate 60; for MILS (Median Increase in Life Span Compared with Untreated Mice) / Survivors 30da: optimal dose mg/kg: adriamycin 4.0, daunomycin 2.0, acetate 40, isobutyrate 40, valerate 40, caproate 60, caprylate 60
Experimental: as §1
(§2) Optimal dosage was determined by testing doses which were at several multiples of 10 milligrams/kilogram of body weight and the optimal dose was used for further tests. Some effectiveness can be observed at dosages ranging from 20 to 70 milligrams/kilogram of body weight, depending upon the particular ester employed.
The following table summarizes the in vivo antitumor activity against murine P 388 leukemia tested by the Geran et al. procedure as exampled above: […]

murine L 1210 leukemia [1] = assay: in vivo antitumor activity against murine L 1210 leukemia (Geran et al. procedure); set-up: species or system BDF1 male mice; conditions: for MILS / Survivors 30da / Survivors 60da: Table III, qd 1-4
Experimental: as §1, §2
The murine L 1210 leukemia is generally poorly responsive to chemotherapy. […] The following table summarizes the results of three separate in vivo tests of N-trifluoroacetyladriamycin-14-valerate against murine L 1210 leukemia following the Geran et al. procedure as described above: […]

[2] = system: murine Ridgway osteogenic sarcoma; assay: in vivo antitumor activity against murine Ridgway osteogenic sarcoma (D'Angio et al. procedure); set-up: species or system AKD2 /F1 mice; conditions: for MILS / Median Survival: Table IV, days 16-19
Experimental: as §1
The following table summarizes the in vivo antitumor activity of N-trifluoroacetyladriamycin-14-valerate against the murine Ridgway osteogenic sarcoma following the D'Angio et at. procedure as described above:
*Therapy was started on day 16 when the intramuscularly implanted tumor was palpable. Seven mice were used in each group, and all compounds were administered intraperitoneally.
Complete remission in this system is defined as the absence of palpable tumor.

mice = assay: toxicity in mice in the in vivo antitumor tests; conditions: P 388 test conditions, qd 1-4; for toxicity: dose of 60 mg/kg i.p.
Experimental: as §1, §2

murine L 1210 leukemia [3] = conditions: background statement; cited from earlier work
malignant tumors = conditions: cited from earlier work; for clinical effectiveness: certain malignant tumors, e.g. induction of remission in acute leukemia
[4] = toxicity in mice in the in vivo antitumor tests; conditions: mouse, in vivo, ip; L1210 test, qd 1-4 schedule; read-out: doses above which toxicity displayed
Experimental: as §1, §2

[5] = Ridgway tumor, complete remission = absence of palpable tumor
[6] = L1210 leukemia, same conditions as Table III

## COc1cccc2c1C(=O)c1c(O)c3c(c(O)c1C2=O)C[C@@](O)(C(=O)COC(C)=O)C[C@@H]3O[C@H]1C[C@H](NC(=O)C(F)(F)F)[C@H](O)[C@H](C)O1 [Acetate, N-trifluoroacetyladriamycin-14-acetate]
CCRF-CEM cell line; CCRF-CEM cells, Table I
  IC50: 200 nM
Murine P 388 leukemia
  Survivors 60da: 0/5
  MILS (Median Increase in Life Span Compared with Untreated Mice): 173%
  Survivors 30da: 2/5

## COc1cccc2c1C(=O)c1c(O)c3c(c(O)c1C2=O)C[C@@](O)(C(=O)CO)C[C@@H]3O[C@H]1C[C@H](N)[C@H](O)[C@H](C)O1 [Adriamycin]
CCRF-CEM cell line; CCRF-CEM
  IC50: 66 nM
Murine P 388 leukemia
  MILS (Median Increase in Life Span Compared with Untreated Mice): 132%
  Survivors 30da: 0/6
Murine L 1210 leukemia [1]; first test, 4.0 mg/kg i.p.
  MILS: 45%
  Survivors 30da: 0/5
Murine L 1210 leukemia [1]; second test, 4.0 mg/kg i.p.
  MILS: 54%
  Survivors 30da: 1/5
  Survivors 60da: 0/5
Murine L 1210 leukemia [1]; third test, 4.0 mg/kg i.p.
  MILS: 42%
  Survivors 30da: 0/7
[2]; 3.0 mg/kg i.p.
  MILS: 40%
  Median Survival: 51.0 days
mice; i.p.
  dose at and above which toxic: ≥ 4 mg/kg
Murine L 1210 leukemia [3]
  effectiveness in prolonging survival of mice bearing L 1210 leukemia (general statement): only moderately effective
Malignant tumors
  clinical effectiveness: effective clinically against certain malignant tumors
Malignant tumors; limiting long-term use
  toxicities in chemotherapy: a variety of toxicities which limit the effectiveness of the compounds
Malignant tumors; solid tumors
  clinical efficacy against certain solid tumors: has shown clinical efficacy against certain solid tumors

## CCCCCCCCCC(=O)OCC(=O)[C@]1(O)Cc2c(O)c3c(c(O)c2[C@@H](O[C@H]2C[C@H](NC(=O)C(F)(F)F)[C@H](O)[C@H](C)O2)C1)C(=O)c1c(OC)cccc1C3=O [Caprate, N-Trifluoroacetyladriamycin-14-caprate]
CCRF-CEM cell line; CCRF-CEM cells, Table I
  IC50: 390 nM

## CCCCCC(=O)OCC(=O)[C@]1(O)Cc2c(O)c3c(c(O)c2[C@@H](O[C@H]2C[C@H](NC(=O)C(F)(F)F)[C@H](O)[C@H](C)O2)C1)C(=O)c1c(OC)cccc1C3=O [Caproate, N-Trifluoroacetyladriamycin-14-caproate]
CCRF-CEM cell line; CCRF-CEM cells, Table I
  IC50: 330 nM
Murine P 388 leukemia
  Survivors 60da: 1/5
  MILS (Median Increase in Life Span Compared with Untreated Mice): 271%
  Survivors 30da: 5/5
mice
  toxicity: no toxicity was observed

## CCCCCCCC(=O)OCC(=O)[C@]1(O)Cc2c(O)c3c(c(O)c2[C@@H](O[C@H]2C[C@H](NC(=O)C(F)(F)F)[C@H](O)[C@H](C)O2)C1)C(=O)c1c(OC)cccc1C3=O [Caprylate, N-Trifluoroacetyladriamycin-14-caprylate]
CCRF-CEM cell line; CCRF-CEM cells, Table I
  IC50: 360 nM
Murine P 388 leukemia
  Survivors 60da: 1/5
  MILS (Median Increase in Life Span Compared with Untreated Mice): 243%
  Survivors 30da: 5/5
mice
  toxicity: no toxicity was observed

## COc1cccc2c1C(=O)c1c(O)c3c(c(O)c1C2=O)C[C@@](O)(C(C)=O)C[C@@H]3O[C@H]1C[C@H](N)[C@H](O)[C@H](C)O1 [Daunomycin, reference compound]
CCRF-CEM cell line; CCRF-CEM
  IC50: 35 nM
Murine P 388 leukemia
  MILS (Median Increase in Life Span Compared with Untreated Mice): 91%
  Survivors 30da: 0/6
Murine L 1210 leukemia [3]
  effectiveness in prolonging survival of mice bearing L 1210 leukemia (general statement): much less so
Malignant tumors
  clinical effectiveness: effective clinically against certain malignant tumors
Malignant tumors; in vivo
  toxicities in chemotherapy: a variety of toxicities which limit the effectiveness of the compounds

## COc1cccc2c1C(=O)c1c(O)c3c(c(O)c1C2=O)C[C@@](O)(C(=O)COC(=O)C(C)C)C[C@@H]3O[C@H]1C[C@H](NC(=O)C(F)(F)F)[C@H](O)[C@H](C)O1 [Isobutyrate, N-Trifluoroacetyladriamycin-14-isobutyrate]
CCRF-CEM cell line; CCRF-CEM cells, Table I
  IC50: 280 nM
Murine P 388 leukemia
  Survivors 60da: 1/5
  MILS (Median Increase in Life Span Compared with Untreated Mice): 150%
  Survivors 30da: 3/5

## CCCCC(=O)OCC(=O)[C@]1(O)Cc2c(O)c3c(c(O)c2[C@@H](O[C@H]2C[C@H](NC(=O)C(F)(F)F)[C@H](O)[C@H](C)O2)C1)C(=O)c1c(OC)cccc1C3=O [N-Trifluoroacetyladriamycin-14-valerate]
CCRF-CEM cell line; CCRF-CEM cells, Table I
  IC50: 240 nM
Murine P 388 leukemia
  Survivors 60da: 3/5
  MILS (Median Increase in Life Span Compared with Untreated Mice): 429%
  Survivors 30da: 4/5
Murine L 1210 leukemia [1]; first test, 60.0 mg/kg i.p.
  MILS: > 445%
  Survivors 30da: 4/5
  Survivors 60da: 4/5
Murine L 1210 leukemia [1]; first test, 70.0 mg/kg i.p.
  MILS: > 445%
  Survivors 30da: 4/5
  Survivors 60da: 4/5
Murine L 1210 leukemia [1]; second test, 50.0 mg/kg i.p.
  MILS: > 445%
  Survivors 30da: 4/7
  Survivors 60da: 4/7
Murine L 1210 leukemia [1]; second test, 60.0 mg/kg i.p.
  MILS: > 445%
  Survivors 30da: 3/6
  Survivors 60da: 3/6
Murine L 1210 leukemia [1]; third test, 50.0 mg/kg i.p.
  MILS: > 400%
  Survivors 30da: 5/7
  Survivors 60da: 5/7
Murine L 1210 leukemia [1]; third test, 60.0 mg/kg i.p.
  MILS: > 400%
  Survivors 30da: 6/7
  Survivors 60da: 6/7
[2]; [5]
  gross number of complete remissions compared with adriamycin: the gross number of complete remissions was greater
  median duration of complete remission compared with adriamycin: the median duration of complete remission was longer
[2]; 50.0 mg/kg i.p.
  MILS: 130%
  Median Survival: 84.0 days
[2]; 60.0 mg/kg i.p.
  MILS: 122%
  Median Survival: 81.0 days

## COc1cccc2c1C(=O)c1c(O)c3c(c(O)c1C2=O)C[C@@](O)(C(=O)COC(=O)C(C)(C)C)C[C@@H]3O[C@H]1C[C@H](NC(=O)C(F)(F)F)[C@H](O)[C@H](C)O1 [Pivalate, N-Trifluoroacetyladriamycin-14-pivalate]
CCRF-CEM cell line; CCRF-CEM cells, Table I
  IC50: 590 nM

## CCC(=O)OCC(=O)[C@]1(O)Cc2c(O)c3c(c(O)c2[C@@H](O[C@H]2C[C@H](NC(=O)C(F)(F)F)[C@H](O)[C@H](C)O2)C1)C(=O)c1c(OC)cccc1C3=O [Propionate, N-Trifluoroacetyladriamycin-14-propionate]
CCRF-CEM cell line; CCRF-CEM cells, Table I
  IC50: 300 nM

## CCCCC(=O)OCC(=O)[C@]1(O)Cc2c(O)c3c(c(O)c2[C@@H](O[C@H]2C[C@H](N)[C@H](O)[C@H](C)O2)C1)C(=O)c1c(OC)cccc1C3=O [adriamycin-14-valerate, reference compound]
Murine L 1210 leukemia [1]; [6]
  effectiveness in prolonging survival of tumor-bearing mice compared with daunomycin: no more effective than daunomycin
  survivors after 30 days: no survivors after 30 days
[4]
  MTD: > 4 mg/kg
